No end group written: not given here.
Tested on: BALB/c (H-2d) mice
Experiment: β-Galactosidase-specific IgA in lung and vaginal lavages of mice immunized i.n. (Example 5)
Format: in vivo
Description: The results are shown as percentage of β-galactosidase-specific IgA in relation to the total IgA present. The SEM is indicated by vertical lines.
The mice were sacrificed on day 31, and the final samples were taken. Vaginal and lung lavages were obtained by rinsing the organs with 1 ml of PBS supplemented by 50 mM EDTA, 0.1% BSA and 10 mM PMSF. The lavages were then centrifuged in order to remove tissue detritus (10 min at 3000×g) and the remaining liquid was stored at −20° C. In order to determine the total IgA concentration in the rinsings from lung and vagina, serial dilutions of the corresponding samples were incubated in microtiter plates, these plates having previously been coated with goat anti-mouse IgA (Sigma Chemie) as capture antibody (100 μl/well). Serial dilutions of purified mouse IgA (Sigma Chemie) were used to produce a standard plot.

Question: Which “levels of β-galactosidase-specific antibodies in the mucous membranes, MALP-2 versus CTB” value (0.5 μg MALP-2 versus 10 μg CTB, i.n.) does the source give for “S-[2,3-bispalmitoyloxypropyl]cysteinyl-GNNDESNISFKEK ({S‑(2,3-bispalmitoyloxypropyl)Cys}-GNNDESNISFKEK) [MALP-2]” here?
Answer: No statistically significant differences

Question: What about the “antigen-specific IgA, based on the total IgA, in lung lavages” value (MALP-2 as adjuvant, i.n.) of the same substance?
Answer: 36%

Question: What about the “antigen-specific IgA, based on the total IgA, in vaginal lavages” value (MALP-2 as adjuvant, i.n.) of the same substance?
Answer: 23%

Question: What about the “β-galactosidase-specific IgA in lung rinsings” value (i.n. immunization, day 31) of the same substance?
Answer: significant increase

Question: And the “β-galactosidase-specific IgA in vaginal rinsings” value (i.n. immunization, day 31)?
Answer: significant concentrations
